Assay [1] deals with bifidobacteria and lactobacillus. The settings on record: in vitro; cited from earlier work.
A further assay deals with S. aureus. Briefly: Antibacterial activity, cork-borer method, inhibition zone with S. aureus. Type of assay: cell-based. As for the experimental part: (§1) Polyvinyl Alcohol (PVA)/Inulin nanofibers are manufactured using electrospinning technique and tested for their prebiotic activity with Lactobacillus sp. and antibacterial activity with E. coli and S. aureus. After characterization and cross-linking of the produced PVA/Inulin Electrospun composite nanofibers (CNF), they were tested for their prebiotic activity with Lactobacillus sp. by viable count, optical density, pH and growth curve, and antibacterial activity with E. coli and S. aureus, by the cork-borer method, measuring the inhibition zone and the inhibition curve.
(§2) FIGS. 4A-B show according to an exemplary embodiment of the invention in FIG. 4A an inhibition zone of PVA electrospun Nanofibers, inulin solution, PVA/Inulin electrospun CNFs, antibiotic and water with E. coli, in FIG. 4B an inhibition zone of PVA electrospun Nanofibers, inulin solution, PVA/Inulin electrospun CNFs, antibiotic and water with S. aureus.

The next assay deals with E. coli. Nature of the assay: Antibacterial activity, cork-borer method, inhibition zone with E. coli. The assay is classed as cell-based. As for the experimental part:
as §1, §2

Another assay deals with Lactobacillus sp. Nature of the assay: Prebiotic activity with Lactobacillus sp. culture (total viable count, pH, optical density after 24 hours incubation). Type of assay: cell-based. Here is the method:
as §1
FIGS. 2A-C show according to an exemplary embodiment of the invention in FIG. 2A Total viable count, FIG. 2B pH, and FIG. 2C Optical density of Lactobacillus sp. culture containing PVA electrospun Nanofibers, inulin solution, PVA/Inulin electrospun CNFs, and water after 24 hours of incubation.
Prebiotic activity was carried out using Lactobacillus sp. to assess the growth activity by calculating the i) total viable counts, ii) pH, iii) optical density (OD), and iv) growth curve.
The pH and the OD of the culture inoculated with the tested material were measured before incubation and after 24 hours incubation. PVA/Inulin electrospun CNFs solution decreased the pH to 5.7 compared to 6.3 for the control.

Assay [2] deals with Bifidobacterium bifidum culture. The note with it: inulin extracted from artichoke; cited from earlier work.
For another assay, the system named is gut bifidobacteria. The settings on record: IBS patients; cited from earlier work.

The values below come from patent publication US20180305524A1, “Inulin Nanofibers” (The American University in Cairo, priority 2014, published 2018).

For the substance inulin [inulin solution], the prebiotic effectiveness entry in assay [1] is recorded as “clear prebiotic effectiveness”. Also, the inhibition zone result in the assay with S. aureus and in the assay on E. coli was “didn't show any visible zone of inhibition” each time. In addition, in the assay with Lactobacillus sp. (after 24 hours incubation, control 6.3), the “pH of the culture” value was 6.2. Moreover, the “lactobacillus growth (total viable count)” value in the assay on Lactobacillus sp. (after 24 hours of incubation) is recorded as 2.9×10^3 cfu/mL. For the same substance, the “growth of B. bifidum” value in assay [2] is listed as “increased the growth”.

As to galactooligosaccharides, in the assay on gut bifidobacteria, the “effectiveness as a prebiotic” value is reported as “effective as a prebiotic”.

In the case of oligofructose [oligofructose (OF)], the prebiotic effectiveness entry in assay [1] is recorded as “clear prebiotic effectiveness”.
